Test results: publication PMC3773341 (Biology Open, 2013)

Key:
[1] = target: T1, BK channel (large-conductance Ca2+-activated K+ channel, BKCa, KCa1.1) (Homo sapiens, UniProt Q12791); assay: whole-cell patch clamp of T-type-activated BK current in LNCaP-α1H cells ([…] in LNCaP-NE cells); assay type: cell-based
T1 construct: gene KCNMA1

[2] = target: T1, BK channel (large-conductance Ca2+-activated K+ channel, BKCa, KCa1.1); assay: whole-cell patch clamp of endogenous BK current in LNCaP cells; current identity confirmed by si-hBK; assay type: cell-based

T1 sequence (Q12791 whole entry): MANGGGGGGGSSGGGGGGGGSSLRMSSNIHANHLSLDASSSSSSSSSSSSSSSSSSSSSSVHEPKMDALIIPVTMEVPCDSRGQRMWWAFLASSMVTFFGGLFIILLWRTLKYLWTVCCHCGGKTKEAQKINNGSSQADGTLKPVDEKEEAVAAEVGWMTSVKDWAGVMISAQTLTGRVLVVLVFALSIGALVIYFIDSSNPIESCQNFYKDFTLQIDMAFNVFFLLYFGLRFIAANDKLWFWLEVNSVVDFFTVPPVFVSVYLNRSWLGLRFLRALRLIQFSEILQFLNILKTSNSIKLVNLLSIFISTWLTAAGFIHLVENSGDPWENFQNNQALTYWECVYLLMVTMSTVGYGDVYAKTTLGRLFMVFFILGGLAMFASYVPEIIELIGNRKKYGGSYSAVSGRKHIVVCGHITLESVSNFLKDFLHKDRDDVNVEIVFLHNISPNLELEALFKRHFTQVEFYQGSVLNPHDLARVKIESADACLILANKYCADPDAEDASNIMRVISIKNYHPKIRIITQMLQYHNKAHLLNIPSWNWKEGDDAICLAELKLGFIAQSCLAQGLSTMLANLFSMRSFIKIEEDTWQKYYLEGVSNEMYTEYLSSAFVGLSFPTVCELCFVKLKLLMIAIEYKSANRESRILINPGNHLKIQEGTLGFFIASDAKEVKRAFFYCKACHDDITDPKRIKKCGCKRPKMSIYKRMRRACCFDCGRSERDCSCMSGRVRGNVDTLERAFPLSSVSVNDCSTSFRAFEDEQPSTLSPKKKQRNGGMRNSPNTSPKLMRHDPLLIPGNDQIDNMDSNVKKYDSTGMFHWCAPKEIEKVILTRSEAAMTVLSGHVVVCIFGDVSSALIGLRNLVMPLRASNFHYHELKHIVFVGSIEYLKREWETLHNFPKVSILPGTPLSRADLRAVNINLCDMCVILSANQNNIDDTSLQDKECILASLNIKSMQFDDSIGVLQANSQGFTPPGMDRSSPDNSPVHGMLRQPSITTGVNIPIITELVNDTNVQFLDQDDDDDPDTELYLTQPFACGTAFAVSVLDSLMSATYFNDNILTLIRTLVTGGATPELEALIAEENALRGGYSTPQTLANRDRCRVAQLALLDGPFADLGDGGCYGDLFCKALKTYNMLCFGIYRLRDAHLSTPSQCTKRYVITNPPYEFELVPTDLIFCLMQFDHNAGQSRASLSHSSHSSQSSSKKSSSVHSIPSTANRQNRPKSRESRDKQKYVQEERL

## CC[N+](CC)(CC)CC [TEA, tetraethyl ammonium]
[1]
  IC50: 1.14 ± 0.2 mM

## CC(C)(O)[C@H]1O[C@H]2CC[C@@]3(C)[C@@](O)(CC[C@H]4Cc5c([nH]c6ccccc56)[C@@]43C)C2=CC1=O [Pax, paxillin]
[2]
  whole-cell patch clamp of endogenous BK current in LNCaP cells; current identity: 1 µM
